Source: PMC7068705 (2019)

What was measured:
[1] = system: SpinachSA (RNA, aptamer) GGGGACGCGACUGAAUGAAAUGGUGAAGGACGGGUCCAGGUGUGGCUGCUUCGGCAGUGCAGCUUGUUGAGUAGAGUGUGAGCUCCGUAACUAGUCGCGUCUUUUUUUUUUUUUUUUUUCGAUCGAUACCGACCAGAAUCAUGCAAGUGCGUAAGAUAGUCGCGGGCCGGGAUCGAUCG; experiment: fluorogen fluorescence on RNA array, in situ during transcription; conditions: 1X MEGAscript T7 transcription buffer, 37 °C, 90 min; 152 µM DFHBI; immobilised RNA
[2] = system: MGSA (RNA, aptamer) GGAUCCCGACUGGCGAGAGCCAGGUAACGAAUGGAUCCACACACACACACACACACACGCAUGCAUACCGACCAGAAUCAUGCAAGUGCGUAAGAUAGUCGCGGGCCGGGAUGCAUGC; experiment: fluorogen fluorescence on RNA array; conditions: 20 mM NaCl, 6 mM MgCl2; 40 mM Tris-HCl pH 7.8, room temperature, 2 h; 40 µM malachite green; immobilised RNA

| SMILES | binding [1] | binding [2] |
| --- | --- | --- |
| CC1=N/C(=C\c2cc(F)c(O)c(F)c2)C(=O)N1C | yes | – |
| CN(C)c1ccc(C(=C2C=CC(=[N+](C)C)C=C2)c2ccccc2)cc1 | – | yes |
